Assay results reported in US20090263852A1, “NONAPOPTOTIC FORMS OF CELL DEATH AND METHODS OF MODULATION” (priority 2000, published 2009).
Starred links: 1 amine or outer side, 2 acyl side, 3 side chain; linkers in the order of their positions; H or OH if unused. Positions of bridges follow the written chain, without caps; N, C: chain ends. Non-standard residues stand in square brackets, D forms with d. Residues, ends and D or L forms follow the SMILES beside them. Chains are numbered I, II in the order given. Actinocin(9to1) = Cc1c2oc3c(C)ccc(C(=O)[*:1])c3nc-2c(C(=O)[*:2])c(N)c1=O; NMeV = CN[C@H](C(=O)O)C(C)C; Sar = CNCC(=O)O

What was measured:
[1] = tested on: Apoptosis; settings: Table 1, Comparison of Apoptosis, Necrosis and Paraptosis; cited from earlier work
[2] = tested on: IGFIR-IC transfected 293T cells; test: IGFIR-IC-induced cell death (paraptosis) in transfected 293T cells, trypan blue exclusion; type: cell-based; design: inhibition of IGFIR-IC-induced cell death: dose or concentration left out as unconfirmed; settings: for IGFIR-induced cell death following drug treatment: drug added 8.5 hrs after transfection, removed after 12 hrs, floating dead cells counted 24 hrs later with trypan blue
Description: Transient transfections used Lipofect-Amine (GIBCO, BRL, Rockville, Md.) according to the manufacturer's instructions. Briefly, 1×10^6 293T cells were seeded in 6 cm dishes, and transfected the next day using a ratio of DNA:Lipofect-Amine of 1 μg:5 μl.
(§1) Following expression of the IGIFR-IC constructs, the cell cultures were assayed for cell death. Cell death was assessed by trypan blue exclusion. Floating cells were collected at the indicated times after transfection, by centrifugation for 10 minutes at 1500 rpm. The cell pellet was subsequently resuspended in 50 μl of PBS, to which 50 μl of trypan blue was added. Dead cells were counted by 4 independent hemocytometer counts.
Briefly, caspase inhibitor BAF was added to pIGFIR-IC transfected 293T cells at a concentration of […]. In addition, 293T cells were cotransfected with […] of pIGFIR-IC and […] of either pcDNA3 or pxiap or pBcl-xL. […] BAF and zVAD.fmk were obtained from Enzyme System Products (Livermore, Calif.).
To assess IGFIR-induced cell death following treatment with Actinomycin D and cycloheximide, both drugs were obtained form Sigma and added to IGFIR-IC transfected 293T cells. Briefly, 293T cells were transfected as described above and 8.5 hours after the beginning of transfection the drugs were added at the indicated concentrations. The drugs were subsequently removed after 12 hours and the cells were fed with fresh medium. Floating cells were collected 24 hrs after the removal of the drugs and dead cells were counted in the presence of trypan blue.
To assess whether caspase-9 has a functional role in IGFIR-induced cell death 293T cells were transfected with 2 μg of DNA consisting of either pcDNA3, 0.5 μg pIGFIR-IC+1.5 μg pcDNA3 (Invitrogen, Carlsbad, Calif.), or 0.5 μg pIGFIR-IC+1.5 μg dominant negative caspase-9 (pC9DN) or dominant negative caspase-7 (pC7DN) expression constructs. 48 hours after transfection, dead cells were counted.

[3] = tested on: 293T cells transfected with pro-caspase-9 (pC9); test: caspase-9 induced cell death in transfected 293T cells; type: cell-based
Description: (§2) In panel (A) 293T cells were transfected with the indicated pcDNA3-based caspase zymogen expression constructs. The general caspase inhibitor BAF was added at 50 μM final concentration. Cell death was assayed 48 hours after transfection. […] Asterisks indicate a highly significant difference from the control as determined by one-way ANOVA analysis (F=34.624, P<0.0001), P<0.0001 for pC9, P=0.0002 for pC7, and P=0.0001 for pC9+BAF (Bonferroni/Dunn post-hoc test). Error bars represent the SEM from three independent experiments. […] Cells were photographed 24 hours after transfection. […] BAF. […] Cells were stained as described in FIG. 2C. Panel (E) Electron micrograph of 293T cells transfected with an expression construct for pro-caspase-9 in the presence of. zVAD.fmk (40 μM). Morphology similar to IGFIR-IC-induced cell death was observed, including cytoplasmic vacuolation and the absence of chromatin condensation, nuclear fragmentation, and apoptotic body formation. Original magnification: 6000×.
as §1, with “The cell pellet was subsequently resuspended in 50 μl of PBS, to which 50 μl of trypan blue was added.” left out, “counts. […]” for “counts.”

[4] = tested on: 293T cells transfected with caspase-7 zymogen expression construct; test: caspase-7 induced cell death in transfected 293T cells; type: cell-based; settings: 50 μM final concentration, 48 hours after transfection
Description: as §2
as §1, with “The cell pellet was subsequently resuspended in 50 μl of PBS, to which 50 μl of trypan blue was added.” left out, “counts. […]” for “counts.”

[5] = tested on: 293T cells transfected with pro-caspase expression constructs; test: Internucleosomal DNA fragmentation of 293T cells transfected with pro-caspase expression constructs; type: cell-based; settings: 50 μM BAF
Description: as §2
Since one of the defining features of apoptotic cell death is the fragmentation of chromatin, genome integrity was assayed by agarose gel electrophoresis. Oligonucleosomal DNA fragmentation was assessed by extraction of soluble DNA from 3×10^6 transfected cells as by Frisch and Francis, Journal of Cell Biology 124:619-626 (1994), which is incorporated herein by reference.

For Cc1c2oc3c(C)ccc(C(=O)N[C@@H]4C(=O)N[C@H](C(C)C)C(=O)N5CCC[C@H]5C(=O)N(C)CC(=O)N(C)[C@@H](C(C)C)C(=O)O[C@@H]4C)c3nc-2c(C(=O)N[C@@H]2C(=O)N[C@H](C(C)C)C(=O)N3CCC[C@H]3C(=O)N(C)CC(=O)N(C)[C@@H](C(C)C)C(=O)O[C@@H]2C)c(N)c1=O [Actinomycin D] (I: T[dV]P[Sar][NMeV] / II: T[dV]P[Sar][NMeV]; ester I:1-I:C, II:1-II:C; linker I:N-II:N via Actinocin(9to1)), the “Inhibition by: Apoptosis” value [1] is given as “Sometimes” and the “IGFIR-induced cell death following drug treatment” value [2] is given as “restored cell viability to control levels”.

With COC(=O)C[C@H](NC(=O)OC(C)(C)C)C(=O)CF [BAF, t-butyloxycarbonyl-Asp (O-methyl)-fluoromethyl ketone] the “morphology of pro-caspase-9 transfected cells, light microscopy” value ([3]; 50 μM BAF, 24 hours after transfection) was “suppressed the apoptotic phenotype”, the “inhibition of caspase-9 induced cell death” value ([3]; 50 μM final concentration, 48 hours after transfection) was 30% and the “inhibition of IGFIR-IC-induced cell death” value ([2]; 293T cells) was “Neither the administration of the caspase inhibitor BAF at 50 mM (A) nor the cotransfection of xiap (B) or Bcl-xL (C) were effective”. For the same compound, the “inhibition of caspase-7 induced cell death” value [4] was “completely” and the “Internucleosomal DNA fragmentation” value [5] was “completely inhibited”.

In the case of C[C@@H]1C[C@@H]([C@H](O)CC2CC(=O)NC(=O)C2)C(=O)[C@@H](C)C1 [Cycloheximide, cycloheximide], the “Inhibition by: Apoptosis” value [1] is given as “Sometimes”, the “Inhibition by: Paraptosis” value ([2]; Table 1, 293T cell death induced by IGFIR-IC) is given as 0 and the “IGFIR-induced cell death following drug treatment” value [2] is given as “dose-dependent block”.

For CC[C@H]1/C=C/C=C/C[C@@H](C)[C@H](O)[C@@](C)(O)C(=O)[C@@H](C)[C@H](O)[C@@H](C)C(=O)[C@@H](C)[C@H](O)[C@@H](C)/C=C/C(=O)O[C@@H]2[C@H](C)[C@H](CC1)O[C@]1(CC[C@H](C)[C@H](C[C@@H](C)O)O1)[C@H]2C [oligomycin], the “block of IGFIR-induced cell death phenotype” value ([2]; 100 ng/ml) was “blocked the phenotype”.
